Laboratory results published in patent US20030165854A1, “Marker genes responding to treatment with toxins” (priority 2000, published 2003).
Where two headings read alike, the source gives them in different places.

What was measured:
[1] = tested on: rat liver cDNAs SEQ ID NOs: 62-202; test: Abundance of cDNA clones in toxin-treated rat liver cDNA libraries (transcript imaging), Sprague-Dawley; assay type: in vivo; details: Strain SD
Procedure: Columns 1 and 2 show the SEQ ID NO and Clone ID of the rat cDNA clone, respectively.
Abundance of a clone was determined by counting the number of clones present in a master cluster.
Abundance of a particular cDNA in the library profile was determined by summing the total number of copies of the clones present in the master cluster in that library.

P450 3A2 = test: Gene expression (fold change) of known genes in toxin-treated rat liver, cDNA library transcript imaging; assay type: in vivo; details: clofibrate-treated rat liver, vs untreated liver
[2] = tested on: rat liver cDNAs SEQ ID NOs: 1-61; assay type: in vivo, Han/Wistar rat; details: Strain HW
P450 LA-omega 4A3 = test: Gene expression (fold change) of known genes in toxin-treated rat liver, cDNA library transcript imaging; details: clofibrate-treated rat liver, vs untreated liver
P450 4A = details: clofibrate-treated rat liver, vs untreated liver

CCOC(=O)C(C)(C)Oc1ccc(Cl)cc1 [clofibrate]
Maximum Abundance, SEQ ID NO 110, Clone ID 700192259 [1]: 5
Maximum Abundance, SEQ ID NO 111, Clone ID 700269330 [1]: 4
Maximum Abundance, SEQ ID NO 112, Clone ID 701317696 [1]: 5
Maximum Abundance, SEQ ID NO 163, Clone ID 700025278 [1]: 4
Maximum Abundance, SEQ ID NO 164, Clone ID 700122008 [1]: 6
Maximum Abundance, SEQ ID NO 165, Clone ID 700136662 [1]: 3
Maximum Abundance, SEQ ID NO 166, Clone ID 700144043 [1]: 4
Maximum Abundance, SEQ ID NO 167, Clone ID 700177423 [1]: 3
Maximum Abundance, SEQ ID NO 168, Clone ID 700247621 [1]: 4
Maximum Abundance, SEQ ID NO 169, Clone ID 700251379 [1]: 3
Maximum Abundance, SEQ ID NO 170, Clone ID 700272988 [1]: 5
Maximum Abundance, SEQ ID NO 171, Clone ID 700306859 [1]: 3
Maximum Abundance, SEQ ID NO 172, Clone ID 700307013 [1]: 3
Maximum Abundance, SEQ ID NO 173, Clone ID 700323707 [1]: 4
Maximum Abundance, SEQ ID NO 174, Clone ID 700513589 [1]: 4
Maximum Abundance, SEQ ID NO 175, Clone ID 700538641 [1]: 3
Maximum Abundance, SEQ ID NO 176, Clone ID 700592657 [1]: 3
Maximum Abundance, SEQ ID NO 177, Clone ID 701190918 [1]: 3
Maximum Abundance, SEQ ID NO 178, Clone ID 701313456 [1]: 3
Maximum Abundance, SEQ ID NO 179, Clone ID 701397319 [1]: 3
Maximum Abundance, SEQ ID NO 180, Clone ID 701429135 [1]: 6
Maximum Abundance, SEQ ID NO 181, Clone ID 701429654 [1]: 3
Maximum Abundance, SEQ ID NO 182, Clone ID 701458841 [1]: 3
Maximum Abundance, SEQ ID NO 183, Clone ID 701470083 [1]: 3
Maximum Abundance, SEQ ID NO 184, Clone ID 701562608 [1]: 3
Maximum Abundance, SEQ ID NO 185, Clone ID 701884534 [1]: 5
Maximum Abundance, SEQ ID NO 186, Clone ID 700068662 [1]: 6
Maximum Abundance, SEQ ID NO 187, Clone ID 700933309 [1]: 5
Maximum Abundance, SEQ ID NO 201, Clone ID 700062503 [1]: 3
Maximum Abundance, SEQ ID NO 113, Clone ID 700230724 ([1]; Sex F): 4
Maximum Abundance, SEQ ID NO 114, Clone ID 700307025 ([1]; Sex F): 4
Maximum Abundance, SEQ ID NO 115, Clone ID 700361295 ([1]; Sex F): 3
Maximum Abundance, SEQ ID NO 116, Clone ID 700420930 ([1]; Sex F): 3
Maximum Abundance, SEQ ID NO 117, Clone ID 700526706 ([1]; Sex F): 3
Maximum Abundance, SEQ ID NO 118, Clone ID 700635732 ([1]; Sex F): 3
Maximum Abundance, SEQ ID NO 119, Clone ID 700824178 ([1]; Sex F): 3
Maximum Abundance, SEQ ID NO 120, Clone ID 701396706 ([1]; Sex F): 4
Maximum Abundance, SEQ ID NO 121, Clone ID 701475987 ([1]; Sex F): 3
Maximum Abundance, SEQ ID NO 122, Clone ID 701621131 ([1]; Sex F): 3
Maximum Abundance, SEQ ID NO 123, Clone ID 701879551 ([1]; Sex F): 3
Maximum Abundance, SEQ ID NO 124, Clone ID 701883446 ([1]; Sex F): 3
Maximum Abundance, SEQ ID NO 125, Clone ID 701883859 ([1]; Sex F): 3
Maximum Abundance, SEQ ID NO 188, Clone ID 700024288 ([1]; Sex F): 2
Maximum Abundance, SEQ ID NO 189, Clone ID 700064545 ([1]; Sex F): 3
Maximum Abundance, SEQ ID NO 190, Clone ID 700066933 ([1]; Sex F): 2
Maximum Abundance, SEQ ID NO 191, Clone ID 700146747 ([1]; Sex F): 3
Maximum Abundance, SEQ ID NO 192, Clone ID 700589657 ([1]; Sex F): 3
Maximum Abundance, SEQ ID NO 193, Clone ID 700858043 ([1]; Sex F): 1
Maximum Abundance, SEQ ID NO 109, Clone ID 700250903 ([1]; Sex M): 11
Maximum Abundance, SEQ ID NO 126, Clone ID 700122019 ([1]; Sex M): 4
Maximum Abundance, SEQ ID NO 127, Clone ID 700276321 ([1]; Sex M): 4
Maximum Abundance, SEQ ID NO 128, Clone ID 700323126 ([1]; Sex M): 3
Maximum Abundance, SEQ ID NO 129, Clone ID 700324604 ([1]; Sex M): 3
Maximum Abundance, SEQ ID NO 130, Clone ID 700363120 ([1]; Sex M): 3
Maximum Abundance, SEQ ID NO 131, Clone ID 700364810 ([1]; Sex M): 3
Maximum Abundance, SEQ ID NO 132, Clone ID 700510701 ([1]; Sex M): 4
Maximum Abundance, SEQ ID NO 133, Clone ID 700810877 ([1]; Sex M): 5
Maximum Abundance, SEQ ID NO 134, Clone ID 700928985 ([1]; Sex M): 6
Maximum Abundance, SEQ ID NO 135, Clone ID 700931410 ([1]; Sex M): 4
Maximum Abundance, SEQ ID NO 136, Clone ID 701093657 ([1]; Sex M): 4
Maximum Abundance, SEQ ID NO 137, Clone ID 701259518 ([1]; Sex M): 3
Maximum Abundance, SEQ ID NO 138, Clone ID 701264516 ([1]; Sex M): 4
Maximum Abundance, SEQ ID NO 139, Clone ID 701341715 ([1]; Sex M): 4
Maximum Abundance, SEQ ID NO 140, Clone ID 701434939 ([1]; Sex M): 4
Maximum Abundance, SEQ ID NO 141, Clone ID 701460429 ([1]; Sex M): 3
Maximum Abundance, SEQ ID NO 142, Clone ID 701463285 ([1]; Sex M): 4
Maximum Abundance, SEQ ID NO 143, Clone ID 701605992 ([1]; Sex M): 4
Maximum Abundance, SEQ ID NO 144, Clone ID 701737185 ([1]; Sex M): 3
Maximum Abundance, SEQ ID NO 145, Clone ID 701737221 ([1]; Sex M): 4
Maximum Abundance, SEQ ID NO 146, Clone ID 701920170 ([1]; Sex M): 3
Maximum Abundance, SEQ ID NO 147, Clone ID 701922204 ([1]; Sex M): 3
Maximum Abundance, SEQ ID NO 148, Clone ID 701922375 ([1]; Sex M): 4
Maximum Abundance, SEQ ID NO 149, Clone ID 701922439 ([1]; Sex M): 4
Maximum Abundance, SEQ ID NO 150, Clone ID 701922513 ([1]; Sex M): 4
Maximum Abundance, SEQ ID NO 151, Clone ID 701922576 ([1]; Sex M): 4
Maximum Abundance, SEQ ID NO 152, Clone ID 701922583 ([1]; Sex M): 3
Maximum Abundance, SEQ ID NO 153, Clone ID 701922711 ([1]; Sex M): 3
Maximum Abundance, SEQ ID NO 154, Clone ID 701922744 ([1]; Sex M): 4
Maximum Abundance, SEQ ID NO 155, Clone ID 701922971 ([1]; Sex M): 3
Maximum Abundance, SEQ ID NO 156, Clone ID 701923019 ([1]; Sex M): 5
Maximum Abundance, SEQ ID NO 157, Clone ID 701923022 ([1]; Sex M): 3
Maximum Abundance, SEQ ID NO 158, Clone ID 701923218 ([1]; Sex M): 4
Maximum Abundance, SEQ ID NO 159, Clone ID 701923240 ([1]; Sex M): 4
Maximum Abundance, SEQ ID NO 160, Clone ID 701923241 ([1]; Sex M): 3
Maximum Abundance, SEQ ID NO 161, Clone ID 701923330 ([1]; Sex M): 3
Maximum Abundance, SEQ ID NO 162, Clone ID 701925484 ([1]; Sex M): 4
Maximum Abundance, SEQ ID NO 194, Clone ID 700060595 ([1]; Sex M): 3
Maximum Abundance, SEQ ID NO 195, Clone ID 700061212 ([1]; Sex M): 3
Maximum Abundance, SEQ ID NO 196, Clone ID 700062747 ([1]; Sex M): 2
Maximum Abundance, SEQ ID NO 197, Clone ID 700124248 ([1]; Sex M): 3
Maximum Abundance, SEQ ID NO 198, Clone ID 700252787 ([1]; Sex M): 3
Maximum Abundance, SEQ ID NO 199, Clone ID 700272719 ([1]; Sex M): 3
Maximum Abundance, SEQ ID NO 200, Clone ID 700282789 ([1]; Sex M): 3
Gene expression (fold change) P450 3A2 (P450 3A2; 12 hours): 0.14 fold change
Gene expression (fold change) P450 3A2 (P450 3A2; 24 hours): 1.2 fold change
Gene expression (fold change) P450 3A2 (P450 3A2; 3 days): 0.63 fold change
Gene expression (fold change) P450 3A2 (P450 3A2; 7 days): 0.50 fold change
Gene expression (fold change) P450 3A2 (P450 3A2; 28 days): 0.45 fold change
Maximum Abundance, SEQ ID NO 9, Clone ID 700308908 [2]: 6
Maximum Abundance, SEQ ID NO 11, Clone ID 700131403 [2]: 4
Maximum Abundance, SEQ ID NO 10, Clone ID 700139239 ([2]; Sex M): 4
Gene expression (fold change) P450 LA-omega 4A3 (P450 LA-omega 4A3; 12 hours): 14.8 fold change
Gene expression (fold change) P450 LA-omega 4A3 (P450 LA-omega 4A3; 24 hours): 26.6 fold change
Gene expression (fold change) P450 LA-omega 4A3 (P450 LA-omega 4A3; 3 days): 1.1 fold change
Gene expression (fold change) P450 LA-omega 4A3 (P450 LA-omega 4A3; 7 days): 0.5 fold change
Gene expression (fold change) P450 LA-omega 4A3 (P450 LA-omega 4A3; 28 days): 0.47 fold change
Gene expression (fold change) P450 4A (P450 4A; 12 hours): 7.0 fold change
Gene expression (fold change) P450 4A (P450 4A; 24 hours): 16.6 fold change
Gene expression (fold change) P450 4A (P450 4A; 3 days): 1.4 fold change
Gene expression (fold change) P450 4A (P450 4A; 7 days): 0.5 fold change
Gene expression (fold change) P450 4A (P450 4A; 28 days): 1.3 fold change
